Data: patent publication US12404262B2 (priority 2021, dated 2025)

Settings: 1.0% DMSO, 24-hour incubation at ambient temperature, maximum theoretical 100 μM; for pH 2 solubility: 0.1N HCl, first value of the cell; for pH 7 solubility: 1×PBS buffer (pH 7.4), second value of the cell

Structure (SMILES) | pH 2 solubility | pH 7 solubility
CC(C)(C#Cc1ccc(-c2ccc(Cl)c3c(N(CCO)S(C)(=O)=O)nn(CC(F)(F)F)c23)c([C@H](Cc2cc(F)cc(F)c2)NC(=O)Cn2nc(C(F)(F)F)c3c2C(F)(F)[C@@H]2C[C@H]32)n1)S(C)(=O)=O [Compound 18, N—((S)-1-(3-(4-chloro-3-(N-(2-hydroxyethyl)methylsulfonamido)-1-(2,2,2-trifluoroethyl)-1H-indazol-7-yl)-6-(3-methyl-3-(methylsulfonyl)but-1-yn-1-yl)pyridin-2-yl)-2-(3,5-difluorophenyl)ethyl)-2-((3bS,4aR)-5,5-difluoro-3-(trifluoromethyl)-3b,4,4a,5-tetrahydro-1H-cyclopropa[3,4]cyclopenta[1,2-c]pyrazol-1-yl)acetamide] | 1/1 μM | 1/1 μM
CC(C)(C#Cc1ccc(-c2ccc(Cl)c3c(N(CCOP(=O)(O)O)S(C)(=O)=O)nn(CC(F)(F)F)c23)c([C@H](Cc2cc(F)cc(F)c2)NC(=O)Cn2nc(C(F)(F)F)c3c2C(F)(F)[C@@H]2C[C@H]32)n1)S(C)(=O)=O [Compound 19, 2-(N-(4-chloro-7-(2-((S)-1-(2-((3bS,4aR)-5,5-difluoro-3-(trifluoromethyl)-3b,4,4a,5-tetrahydro-1H-cyclopropa[3,4]cyclopenta[1,2-c]pyrazol-1-yl)acetamido)-2-(3,5-difluorophenyl)ethyl)-6-(3-methyl-3-(methylsulfonyl)but-1-yn-1-yl)pyridin-3-yl)-1-(2,2,2-trifluoroethyl)-1H-indazol-3-yl)methylsulfonamido)ethyl dihydrogen phosphate] | 1 μM | 100 μM
CC(C)(C#Cc1ccc(-c2ccc(Cl)c3c(N(COC(=O)CCP(=O)(O)O)S(C)(=O)=O)nn(CC(F)(F)F)c23)c([C@H](Cc2cc(F)cc(F)c2)NC(=O)Cn2nc(C(F)(F)F)c3c2C(F)(F)[C@@H]2C[C@H]32)n1)S(C)(=O)=O [Compound 21, (3-((N-(4-chloro-7-(2-((S)-1-(2-((3bS,4aR)-5,5-difluoro-3-(trifluoromethyl)-3b,4,4a,5-tetrahydro-1H-cyclopropa[3,4]cyclopenta[1,2-c]pyrazol-1-yl)acetamido)-2-(3,5-difluorophenyl)ethyl)-6-(3-methyl-3-(methylsulfonyl)but-1-yn-1-yl)pyridin-3-yl)-1-(2,2,2-trifluoroethyl)-1H-indazol-3-yl)methylsulfonamido)methoxy)-3-oxopropyl)phosphonic acid] | 86 μM | 1 μM
C[C@@H](C(=O)OCN(c1nn(CC(F)(F)F)c2c(-c3ccc(C#CC(C)(C)S(C)(=O)=O)nc3[C@H](Cc3cc(F)cc(F)c3)NC(=O)Cn3nc(C(F)(F)F)c4c3C(F)(F)[C@@H]3C[C@H]43)ccc(Cl)c12)S(C)(=O)=O)N(C)C [Compound 22, (N-(4-chloro-7-(2-((S)-1-(2-((3bS,4aR)-5,5-difluoro-3-(trifluoromethyl)-3b,4,4a,5-tetrahydro-1H-cyclopropa[3,4]cyclopenta[1,2-c]pyrazol-1-yl)acetamido)-2-(3,5-difluorophenyl)ethyl)-6-(3-methyl-3-(methylsulfonyl)but-1-yn-1-yl)pyridin-3-yl)-1-(2,2,2-trifluoroethyl)-1H-indazol-3-yl)methylsulfonamido)methyl dimethyl-L-alaninate] | 45 μM | 3 μM
CC(C)(C#Cc1ccc(-c2ccc(Cl)c3c(N(COP(=O)(O)O)S(C)(=O)=O)nn(CC(F)(F)F)c23)c([C@H](Cc2cc(F)cc(F)c2)NC(=O)Cn2nc(C(F)(F)F)c3c2C(F)(F)[C@@H]2C[C@H]32)n1)S(C)(=O)=O [Compound 23, (N-(4-chloro-7-(2-((S)-1-(2-((3bS,4aR)-5,5-difluoro-3-(trifluoromethyl)-3b,4,4a,5-tetrahydro-1H-cyclopropa[3,4]cyclopenta[1,2-c]pyrazol-1-yl)acetamido)-2-(3,5-difluorophenyl)ethyl)-6-(3-methyl-3-(methylsulfonyl)but-1-yn-1-yl)pyridin-3-yl)-1-(2,2,2-trifluoroethyl)-1H-indazol-3-yl)methylsulfonamido)methyl dihydrogen phosphate] | 6 μM | 100 μM
